Each molecule was assayed on MCH receptors (assay: MCH receptor activity class (method not given)). Settings: activity class 1-3: percent of control at 10^-7 M or IC50.
For `CN(C)c1nc(N[C@H]2CC[C@@H](NC(=O)Oc3ccc4ccccc4c3)CC2)nc2c1CCCC2` [compound 1589], the class was 3 (Class 3 The value of percent of control at 10^−7 M was more than 60% or the value of IC50 was more than 200 nM.).
With `C=CCOC(=O)N[C@H]1CC[C@@H](Nc2nc3c(c(N(C)C)n2)CCCC3)CC1` [compound 1590] the class was 3 (Class 3 The value of percent of control at 10^−7 M was more than 60% or the value of IC50 was more than 200 nM.).
With `CN(C)c1nc(N[C@H]2CC[C@@H](NC(=O)OCc3ccccc3)CC2)nc2c1CCCC2` [compound 1591] the class was 3 (Class 3 The value of percent of control at 10^−7 M was more than 60% or the value of IC50 was more than 200 nM.).
For `CN(C)c1nc(N[C@H]2CC[C@@H](NC(=O)Oc3ccccc3)CC2)nc2c1CCCC2` [compound 1592], the class was 3 (Class 3 The value of percent of control at 10^−7 M was more than 60% or the value of IC50 was more than 200 nM.).
For `CC(C)[C@@H]1CC[C@@H](C)CC1OC(=O)N[C@H]1CC[C@@H](Nc2nc3c(c(N(C)C)n2)CCCC3)CC1` (stereo partly shown) [compound 1593], the class was 3 (Class 3 The value of percent of control at 10^−7 M was more than 60% or the value of IC50 was more than 200 nM.).
For `Cc1ccc(OC(=O)N[C@H]2CC[C@@H](Nc3nc4c(c(N(C)C)n3)CCCC4)CC2)cc1` [compound 1594], the class was 3 (Class 3 The value of percent of control at 10^−7 M was more than 60% or the value of IC50 was more than 200 nM.).
`COC(=O)N[C@H]1CC[C@@H](Nc2nc3c(c(N(C)C)n2)CCCC3)CC1` [compound 1595] was tested, and the class was 3 (Class 3 The value of percent of control at 10^−7 M was more than 60% or the value of IC50 was more than 200 nM.).
With `CN(C)c1nc(N[C@H]2CC[C@@H](NC(=O)OCc3ccccc3Cl)CC2)nc2c1CCCC2` [compound 1596] the class was 3 (Class 3 The value of percent of control at 10^−7 M was more than 60% or the value of IC50 was more than 200 nM.).
`CN(C)c1nc(N[C@H]2CC[C@@H](NC(=O)OCC3c4ccccc4-c4ccccc43)CC2)nc2c1CCCC2` [compound 1597] was tested, and the class was 3 (Class 3 The value of percent of control at 10^−7 M was more than 60% or the value of IC50 was more than 200 nM.).
For `CN(C)c1nc(N[C@H]2CC[C@@H](NC(=O)OCC(Cl)(Cl)Cl)CC2)nc2c1CCCC2` [compound 1598], the class was 3 (Class 3 The value of percent of control at 10^−7 M was more than 60% or the value of IC50 was more than 200 nM.).
`CN(C)c1nc(N[C@H]2CC[C@@H](CNC(=O)OCCOCc3ccccc3)CC2)nc2c1CCCC2` [compound 1599] was tested, and the class was 3 (Class 3 The value of percent of control at 10^−7 M was more than 60% or the value of IC50 was more than 200 nM.).
`CN(C)c1nc(N[C@H]2CC[C@@H](CNC(=O)OCC(C)(C)C)CC2)nc2c1CCCC2` [compound 1600] was tested, and the class was 3 (Class 3 The value of percent of control at 10^−7 M was more than 60% or the value of IC50 was more than 200 nM.).
`COc1cc(COC(=O)NC[C@H]2CC[C@@H](Nc3nc4c(c(N(C)C)n3)CCCC4)CC2)c([N+](=O)[O-])cc1OC` [compound 1601] was tested, and the class was 3 (Class 3 The value of percent of control at 10^−7 M was more than 60% or the value of IC50 was more than 200 nM.).
In the case of `CN(C)c1nc(N[C@H]2CC[C@@H](CNC(=O)Oc3cccc(C(F)(F)F)c3)CC2)nc2c1CCCC2` [compound 1602], the class was 3 (Class 3 The value of percent of control at 10^−7 M was more than 60% or the value of IC50 was more than 200 nM.).
For `CN(C)c1nc(N[C@H]2CC[C@@H](CNC(=O)Oc3ccc(Br)cc3)CC2)nc2c1CCCC2` [compound 1603], the class was 3 (Class 3 The value of percent of control at 10^−7 M was more than 60% or the value of IC50 was more than 200 nM.).
For `COc1ccccc1OC(=O)NC[C@H]1CC[C@@H](Nc2nc3c(c(N(C)C)n2)CCCC3)CC1` [compound 1604], the class was 3 (Class 3 The value of percent of control at 10^−7 M was more than 60% or the value of IC50 was more than 200 nM.).
`COCCOC(=O)NC[C@H]1CC[C@@H](Nc2nc3c(c(N(C)C)n2)CCCC3)CC1` [compound 1605] was tested, and the class was 3 (Class 3 The value of percent of control at 10^−7 M was more than 60% or the value of IC50 was more than 200 nM.).
In the case of `CCCCCCCCOC(=O)NC[C@H]1CC[C@@H](Nc2nc3c(c(N(C)C)n2)CCCC3)CC1` [compound 1606], the class was 3 (Class 3 The value of percent of control at 10^−7 M was more than 60% or the value of IC50 was more than 200 nM.).
For `CCOC(=O)NC[C@H]1CC[C@@H](Nc2nc3c(c(N(C)C)n2)CCCC3)CC1` [compound 1607], the class was 3 (Class 3 The value of percent of control at 10^−7 M was more than 60% or the value of IC50 was more than 200 nM.).
In the case of `CN(C)c1nc(NC2CCC(CNC(=O)OCc3ccc([N+](=O)[O-])cc3)CC2)nc2c1CCCC2` (stereo not shown) [compound 1608], the class was 3 (Class 3 The value of percent of control at 10^−7 M was more than 60% or the value of IC50 was more than 200 nM.).
In the case of `CN(C)c1nc(N[C@H]2CC[C@@H](CNC(=O)Oc3ccc4ccccc4c3)CC2)nc2c1CCCC2` [compound 1609], the class was 3 (Class 3 The value of percent of control at 10^−7 M was more than 60% or the value of IC50 was more than 200 nM.).
For `C=CCOC(=O)NC[C@H]1CC[C@@H](Nc2nc3c(c(N(C)C)n2)CCCC3)CC1` [compound 1610], the class was 3 (Class 3 The value of percent of control at 10^−7 M was more than 60% or the value of IC50 was more than 200 nM.).
With `CN(C)c1nc(NC2CCC(CNC(=O)OCc3ccccc3)CC2)nc2c1CCCC2` (stereo not shown) [compound 1611] the class was 3 (Class 3 The value of percent of control at 10^−7 M was more than 60% or the value of IC50 was more than 200 nM.).
For `CN(C)c1nc(N[C@H]2CC[C@@H](CNC(=O)Oc3ccccc3)CC2)nc2c1CCCC2` [compound 1612], the class was 3 (Class 3 The value of percent of control at 10^−7 M was more than 60% or the value of IC50 was more than 200 nM.).
`CC(C)[C@@H]1CC[C@@H](C)CC1OC(=O)NC[C@H]1CC[C@@H](Nc2nc3c(c(N(C)C)n2)CCCC3)CC1` (stereo partly shown) [compound 1613] was tested, and the class was 3 (Class 3 The value of percent of control at 10^−7 M was more than 60% or the value of IC50 was more than 200 nM.).
`Cc1ccc(OC(=O)NC[C@H]2CC[C@@H](Nc3nc4c(c(N(C)C)n3)CCCC4)CC2)cc1` [compound 1614] was tested, and the class was 3 (Class 3 The value of percent of control at 10^−7 M was more than 60% or the value of IC50 was more than 200 nM.).
With `COC(=O)NC[C@H]1CC[C@@H](Nc2nc3c(c(N(C)C)n2)CCCC3)CC1` [compound 1615] the class was 3 (Class 3 The value of percent of control at 10^−7 M was more than 60% or the value of IC50 was more than 200 nM.).
For `CN(C)c1nc(N[C@H]2CC[C@@H](CNC(=O)OCc3ccccc3Cl)CC2)nc2c1CCCC2` [compound 1616], the class was 3 (Class 3 The value of percent of control at 10^−7 M was more than 60% or the value of IC50 was more than 200 nM.).
With `CN(C)c1nc(N[C@H]2CC[C@@H](CNC(=O)OCC3c4ccccc4-c4ccccc43)CC2)nc2c1CCCC2` [compound 1617] the class was 3 (Class 3 The value of percent of control at 10^−7 M was more than 60% or the value of IC50 was more than 200 nM.).
`CN(C)c1nc(N[C@H]2CC[C@@H](CNC(=O)OCC(Cl)(Cl)Cl)CC2)nc2c1CCCC2` [compound 1618] was tested, and the class was 3 (Class 3 The value of percent of control at 10^−7 M was more than 60% or the value of IC50 was more than 200 nM.).
With `CN(C)c1ccnc(N[C@H]2CC[C@@H](NC(=O)OCCOCc3ccccc3)CC2)n1` [compound 1619] the class was 3 (Class 3 The value of percent of control at 10^−7 M was more than 60% or the value of IC50 was more than 200 nM.).
For `CN(C)c1ccnc(N[C@H]2CC[C@@H](NC(=O)OCC(C)(C)C)CC2)n1` [compound 1620], the class was 3 (Class 3 The value of percent of control at 10^−7 M was more than 60% or the value of IC50 was more than 200 nM.).
With `COc1cc(COC(=O)NC2CCC(Nc3nccc(N(C)C)n3)CC2)c([N+](=O)[O-])cc1OC` (stereo not shown) [compound 1621, [4-(4-Dimethylamino-pyrimidin-2-ylamino)-cyclohexyl]-carbamid acid 4,5-dimethoxy-2-nitro-benzyl ester] the class was 3 (Class 3 The value of percent of control at 10^−7 M was more than 60% or the value of IC50 was more than 200 nM.).
`CN(C)c1ccnc(N[C@H]2CC[C@@H](NC(=O)Oc3cccc(C(F)(F)F)c3)CC2)n1` [compound 1622] was tested, and the class was 3 (Class 3 The value of percent of control at 10^−7 M was more than 60% or the value of IC50 was more than 200 nM.).
`CN(C)c1ccnc(N[C@H]2CC[C@@H](NC(=O)Oc3ccc(Br)cc3)CC2)n1` [compound 1623] was tested, and the class was 3 (Class 3 The value of percent of control at 10^−7 M was more than 60% or the value of IC50 was more than 200 nM.).
In the case of `COc1ccccc1OC(=O)N[C@H]1CC[C@@H](Nc2nccc(N(C)C)n2)CC1` [compound 1624], the class was 3 (Class 3 The value of percent of control at 10^−7 M was more than 60% or the value of IC50 was more than 200 nM.).
`COCCOC(=O)N[C@H]1CC[C@@H](Nc2nccc(N(C)C)n2)CC1` [compound 1625] was tested, and the class was 3 (Class 3 The value of percent of control at 10^−7 M was more than 60% or the value of IC50 was more than 200 nM.).
In the case of `CCCCCCCCOC(=O)N[C@H]1CC[C@@H](Nc2nccc(N(C)C)n2)CC1` [compound 1626], the class was 3 (Class 3 The value of percent of control at 10^−7 M was more than 60% or the value of IC50 was more than 200 nM.).
`CCOC(=O)N[C@H]1CC[C@@H](Nc2nccc(N(C)C)n2)CC1` [compound 1627] was tested, and the class was 3 (Class 3 The value of percent of control at 10^−7 M was more than 60% or the value of IC50 was more than 200 nM.).
For `CN(C)c1ccnc(N[C@H]2CC[C@@H](NC(=O)OCc3ccc([N+](=O)[O-])cc3)CC2)n1` [compound 1628], the class was 3 (Class 3 The value of percent of control at 10^−7 M was more than 60% or the value of IC50 was more than 200 nM.).
In the case of `CN(C)c1ccnc(N[C@H]2CC[C@@H](NC(=O)Oc3ccc4ccccc4c3)CC2)n1` [compound 1629], the class was 3 (Class 3 The value of percent of control at 10^−7 M was more than 60% or the value of IC50 was more than 200 nM.).
For `C=CCOC(=O)N[C@H]1CC[C@@H](Nc2nccc(N(C)C)n2)CC1` [compound 1630], the class was 3 (Class 3 The value of percent of control at 10^−7 M was more than 60% or the value of IC50 was more than 200 nM.).
With `CN(C)c1ccnc(N[C@H]2CC[C@@H](NC(=O)OCc3ccccc3)CC2)n1` [compound 1631] the class was 3 (Class 3 The value of percent of control at 10^−7 M was more than 60% or the value of IC50 was more than 200 nM.).
